Source: US20090203901A1, “Process for preparing pyrazole functionalized benzodiazepinones” (Roche Colorado Corporation, priority 2008, published 2009)

How the values were obtained:
[1] = system: vascular endothelial cell proliferation; conditions: endothelial versus tumor cell proliferation; cited from earlier work
[2] = system: tumor growth and metastasis; conditions: cited from earlier work

Row | melting point | SMILES | half-maximal inhibition of vascular endothelial cell proliferation at lower concentration than tumor cell proliferation [1] | tumor growth and metastasis in vivo [2]
1 | 177 to 178 °C | COc1cc(NC(=O)CBr)c(C(=O)c2ccccc2Cl)cc1F |  | 
2 | 130.5 to 132.5 °C | COc1cc(N)c(C(=O)c2ccccc2Cl)cc1F [Example 3a, 2-Amino-2′-chloro-5-fluoro-4-methoxybenzophenone] |  | 
3 | 210 to 212.5 °C | COc1cc2c(cc1F)C(c1ccccc1Cl)=NCC(=O)N2 |  | 
4 | 122 to 124 °C | COc1cc(NCc2ccccc2)c(C(=O)c2ccccc2Cl)cc1F [Example 2, 2-(Benzylamino)-2′-chloro-5-fluoro-4-methoxybenzophenone] |  | 
5 |  | CO[C@@H]1[C@H](OC(=O)NC(=O)CCl)CC[C@]2(CO2)[C@H]1[C@@]1(C)O[C@@H]1CC=C(C)C [AGM-1470] | 4 logs | inhibits tumor growth and metastasis in vivo
6 | 84 to 85 °C | COc1cc(F)c(C(=O)c2ccccc2Cl)cc1F [Example 1, 2′-Chloro-2,5-difluoro-4-methoxybenzophenone] |  | 
7 | 125 to 127 °C | C=CCNc1cc(OC)c(F)cc1C(=O)c1ccccc1Cl [Example 9, 2-(Allylamino)-2′chloro-5-fluoro-4-methoxybenzophenone] |  | 
